Test results reported in US8080529B2, “Macrolides with anti-inflammatory activity” (Glaxo Group Limited, priority 2005, dated 2011).
Like-named read-outs stand apart in the source and are kept apart here.

Legend:
IL-8 = experiment: Inhibition of IL-8 production by stimulated human peripheral blood leukocytes in vitro; type: cell-based; details: Homo sapiens, Leukocyte, read-out: Percentage of inhibition of IL-8 production
Summary of the method: (§1)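 Compound at 10 or 50 μM, given 2 h ahead of an overnight LPS, PMA or zymosan challenge, was tested on human PBL in RPMI with 10% FCS at 37 °C. Sandwich ELISA quantified supernatant cytokine.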

IL-6 = experiment: Inhibition of IL-6 production by stimulated human peripheral blood leukocytes in vitro; type: cell-based; details: Homo sapiens, Leukocyte, read-out: Percentage of inhibition of IL-6 production
Summary of the method: as §1

A549 = experiment: Cytotoxicity assay (MTT), A549 cell line; type: cell-based; details: 24 h
Summary of the method: (§2)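 Viability was read as MTT-formazan absorbance at 490 nm after 0.5-2 h with reagent. This followed 24 h compound exposure (50 μM, 12.5 μM) at 37° C in RPM medium. Result expressed as OD490 treated over untreated cells ×100.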

TNF-α [1] = experiment: Inhibition of TNF-α production by stimulated human peripheral blood leukocytes in vitro; type: cell-based; details: Homo sapiens, Leukocyte, read-out: Percentage of inhibition of TNF-α production
Summary of the method: as §1

TNF-α [2] = experiment: Lipopolysaccharide induced TNF-α production in Balb/cJ mice; type: in vivo; details: Mus musculus, ip, 1.5 h; 10 mg/kg intraperitoneally, 30 min before LPS; 90 min after LPS; read-out: % inhibition of TNF-α production (plasma)
IL-1α = experiment: Inhibition of IL-1 production by stimulated human peripheral blood leukocytes in vitro; type: cell-based; details: Homo sapiens, Leukocyte, read-out: Percentage of inhibition of IL-1α production
[3] = tested on: human peripheral blood mononuclear cells (PBMC); experiment: Effects on human T-cell proliferation in vitro (3H-thymidine incorporation); type: cell-based; details: Homo sapiens, PBMC, read-out: Percentage of inhibition of proliferation of stimulated PBMC
Summary of the method: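 Proliferation of human peripheral blood mononuclear cells (PBMC) was assessed in the presence of test compounds. During the final 18 h of culture each well received 1 μCi of ^3H-thymidine. Cells were then collected onto a 96-well filter with a multiple cell harvester, and ^3H-thymidine incorporation was counted on a TopCount NXT to give percentage inhibition of proliferation.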

Hep G2 = experiment: Cytotoxicity assay (MTT), Hep G2 cell line; type: cell-based; details: 24 h
Summary of the method: as §2

| SMILES | inhibition at 10 µM (IL-8; LPS-stimulated PBL) [%] | inhibition at 10 µM (IL-8; PMA-stimulated PBL) [%] | inhibition at 10 µM (IL-8; zymosan-stimulated PBL) [%] | inhibition at 50 µM (IL-8; LPS-stimulated PBL) [%] | inhibition at 50 µM (IL-8; PMA-stimulated PBL) [%] | inhibition at 50 µM (IL-8; zymosan-stimulated PBL) [%] | inhibition at 10 µM (IL-6; LPS-stimulated PBL) [%] | inhibition at 10 µM (IL-6; PMA-stimulated PBL) [%] | inhibition at 10 µM (IL-6; zymosan-stimulated PBL) [%] | inhibition at 50 µM (IL-6; LPS-stimulated PBL) [%] | inhibition at 50 µM (IL-6; PMA-stimulated PBL) [%] | inhibition at 50 µM (IL-6; zymosan-stimulated PBL) [%] | Percentage of inhibition of cell growth (A549; 12.5 μM) [%] | Percentage of inhibition of cell growth (A549; 50 μM) [%] | inhibition at 10 µM (TNF-α [1]; LPS-stimulated PBL) [%] | inhibition at 10 µM (TNF-α [1]; PMA-stimulated PBL) [%] | inhibition at 10 µM (TNF-α [1]; zymosan-stimulated PBL) [%] | inhibition at 50 µM (TNF-α [1]; LPS-stimulated PBL) [%] | inhibition at 50 µM (TNF-α [1]; PMA-stimulated PBL) [%] | inhibition at 50 µM (TNF-α [1]; zymosan-stimulated PBL) [%] | further results |
| --- | --- | --- | --- | --- | --- | --- | --- | --- | --- | --- | --- | --- | --- | --- | --- | --- | --- | --- | --- | --- | --- |
| CC[C@H]1OC(=O)[C@H](C)C(O[C@H]2C[C@@](C)(OC)[C@@H](OC(=O)CCN(CC)CC)[C@H](C)O2)[C@H](C)[C@@H](O[C@@H]2O[C@H](C)C[C@H](N(C)C)[C@H]2O)[C@](C)(OC)C[C@@H](C)C(=O)[C@H](C)[C@H](O)[C@]1(C)O (stereo partly drawn) [Example 49, 4″-O-(3-Diethylamino-propionyl)-6-O-methylerithromycin A] | 44 | 0 | 15 | 86 | 95 | 54 | 70 | 76 | 76 | 99 | 86 | 97 | 0 | 6 | 69 | 37 | 70 | 91 | 86 | 93 | inhibition in vivo at 10 mg/kg (TNF-α [2]): 43%; inhibition at 10 µM (IL-1α; LPS-stimulated PBL): 84%; inhibition at 10 µM (IL-1α; PMA-stimulated PBL): 35%; inhibition at 10 µM (IL-1α; zymosan-stimulated PBL): 76%; inhibition at 50 µM (IL-1α; LPS-stimulated PBL): 86%; inhibition at 50 µM (IL-1α; PMA-stimulated PBL): 84%; inhibition at 50 µM (IL-1α; zymosan-stimulated PBL): 25%; inhibition at 10 µM ([3]; PHA): 44%; inhibition at 50 µM ([3]; PHA): 99%; inhibition at 10 µM ([3]; PMA + iono.): 24%; inhibition at 50 µM ([3]; PMA + iono.): 100%; Percentage of inhibition of cell growth (Hep G2; 12.5 μM): 5%; Percentage of inhibition of cell growth (Hep G2; 50 μM): 26% |
| CC[C@H]1OC(=O)[C@H](C)[C@@H](O[C@H]2C[C@@](C)(OC)[C@@H](O)[C@H](C)O2)[C@H](C)[C@@H](O[C@@H]2O[C@H](C)C[C@H](N(C)C)[C@H]2O)[C@](C)(O)C[C@@H](C)CN(C)[C@H](C)[C@@H](O)[C@]1(C)O [azithromycin, reference compound] | 0 | 0 | 0 | 0 | 0 | 0 | 15 | 0 | 20 | 40 | 0 | 75 | 0 | 0 | 36 | 0 | 6 | 20 | 0 | 64 | inhibition in vivo at 10 mg/kg (TNF-α [2]): 54%; inhibition at 10 µM (IL-1α; LPS-stimulated PBL): 28%; inhibition at 10 µM (IL-1α; PMA-stimulated PBL): 0%; inhibition at 10 µM (IL-1α; zymosan-stimulated PBL): 20%; inhibition at 50 µM (IL-1α; LPS-stimulated PBL): 48%; inhibition at 50 µM (IL-1α; PMA-stimulated PBL): 0%; inhibition at 50 µM (IL-1α; zymosan-stimulated PBL): 75%; inhibition at 10 µM ([3]; PHA): 5%; inhibition at 50 µM ([3]; PHA): 29%; inhibition at 10 µM ([3]; PMA + iono.): 9%; inhibition at 50 µM ([3]; PMA + iono.): 31%; Percentage of inhibition of cell growth (Hep G2; 12.5 μM): 0%; Percentage of inhibition of cell growth (Hep G2; 50 μM): 0% |
| CC[C@H]1OC(=O)[C@H](C)[C@@H](O[C@H]2C[C@@](C)(OC)[C@@H](O)[C@H](C)O2)[C@H](C)[C@@H](O[C@@H]2O[C@H](C)C[C@H](N(C)C)[C@H]2O)[C@](C)(OC)C[C@@H](C)C(=O)[C@H](C)[C@@H](O)[C@]1(C)O [clarithromycin, reference compound] | 23 | 33 | 0 | 0 | 0 | 0 | 11 | 0 | 28 | 0 | 0 | 0 | 0 | 0 | 0 | 0 | 0 | 0 | 0 | 0 | inhibition in vivo at 10 mg/kg (TNF-α [2]): 63%; inhibition at 10 µM (IL-1α; LPS-stimulated PBL): 0%; inhibition at 10 µM (IL-1α; PMA-stimulated PBL): 26%; inhibition at 10 µM (IL-1α; zymosan-stimulated PBL): 36%; inhibition at 50 µM (IL-1α; LPS-stimulated PBL): 0%; inhibition at 50 µM (IL-1α; PMA-stimulated PBL): 33%; inhibition at 50 µM (IL-1α; zymosan-stimulated PBL): 59%; inhibition at 10 µM ([3]; PHA): 0%; inhibition at 50 µM ([3]; PHA): 7%; inhibition at 10 µM ([3]; PMA + iono.): 9%; inhibition at 50 µM ([3]; PMA + iono.): 14%; Percentage of inhibition of cell growth (Hep G2; 12.5 μM): 0%; Percentage of inhibition of cell growth (Hep G2; 50 μM): 0% |
